Assay results published in ChEMBL document CHEMBL4507291 (2021).

Key:
[1] = test system: Tyrosine-protein kinase ABL1 (Homo sapiens), P00519 [M351T]
[2] = test system: Tyrosine-protein kinase ABL1 (Homo sapiens), P00519 [Y253F]
[3] = molecular target: Tyrosine-protein kinase ABL1 (Homo sapiens) (UniProt P00519)
[4] = molecular target: Calcium/calmodulin-dependent protein kinase type 1D (Homo sapiens) (UniProt Q8IU85)
[5] = molecular target: Calcium/calmodulin-dependent protein kinase type II subunit alpha (Homo sapiens) (UniProt Q9UQM7)
[6] = molecular target: Peripheral plasma membrane protein CASK (Homo sapiens) (UniProt O14936)
[7] = molecular target: Cyclin-dependent kinase-like 1 (Homo sapiens) (UniProt Q00532)
[8] = molecular target: Serine/threonine-protein kinase DCLK1 (Homo sapiens) (UniProt O15075)
[9] = molecular target: Dual specificity tyrosine-phosphorylation-regulated kinase 1A (Homo sapiens) (UniProt Q13627)
[10] = molecular target: Ephrin type-A receptor 4 (Homo sapiens) (UniProt P54764)
[11] = molecular target: Tyrosine-protein kinase HCK (Homo sapiens) (UniProt P08631)
[12] = molecular target: T1, Homeodomain-interacting protein kinase 4 (Homo sapiens) (UniProt Q8NE63)
T1 sequence (whole entry): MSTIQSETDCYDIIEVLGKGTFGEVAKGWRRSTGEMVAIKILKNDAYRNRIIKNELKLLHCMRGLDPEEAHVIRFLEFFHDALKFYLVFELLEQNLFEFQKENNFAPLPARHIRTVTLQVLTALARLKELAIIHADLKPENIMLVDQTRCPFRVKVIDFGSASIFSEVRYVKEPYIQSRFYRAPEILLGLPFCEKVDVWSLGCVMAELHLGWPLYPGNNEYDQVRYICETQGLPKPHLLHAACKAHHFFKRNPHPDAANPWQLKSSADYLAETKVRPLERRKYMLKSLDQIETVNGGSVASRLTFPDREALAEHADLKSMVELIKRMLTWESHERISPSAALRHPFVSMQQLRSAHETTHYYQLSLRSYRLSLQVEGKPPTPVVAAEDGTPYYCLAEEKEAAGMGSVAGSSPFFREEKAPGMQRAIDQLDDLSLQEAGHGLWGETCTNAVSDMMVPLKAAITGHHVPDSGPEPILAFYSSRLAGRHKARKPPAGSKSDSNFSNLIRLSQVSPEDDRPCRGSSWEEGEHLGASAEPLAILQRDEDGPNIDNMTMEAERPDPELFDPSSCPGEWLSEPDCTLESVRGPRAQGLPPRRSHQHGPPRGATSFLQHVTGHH

[13] = molecular target: Serine/threonine-protein kinase ICK (Homo sapiens) (UniProt Q9UPZ9)
[14] = test system: Hepatocyte growth factor receptor (Homo sapiens), P08581 [M1250T]
[15] = molecular target: Dual specificity mitogen-activated protein kinase kinase 7 (Homo sapiens) (UniProt O14733)
[16] = molecular target: Serine/threonine-protein kinase MRCK alpha (Homo sapiens) (UniProt Q5VT25)
[17] = molecular target: Myosin light chain kinase, smooth muscle (Homo sapiens) (UniProt Q15746)
[18] = molecular target: Serine/threonine-protein kinase PAK 1 (Homo sapiens) (UniProt Q13153)
[19] = molecular target: Phosphatidylinositol 4,5-bisphosphate 3-kinase catalytic subunit alpha isoform (Homo sapiens) (UniProt P42336)
[20] = molecular target: Serine/threonine-protein kinase pim-1 (Homo sapiens) (UniProt P11309)
[21] = molecular target: Serine/threonine-protein kinase N1 (Homo sapiens) (UniProt Q16512)
[22] = molecular target: Rho-associated protein kinase 2 (Homo sapiens) (UniProt O75116)
[23] = molecular target: Ribosomal protein S6 kinase alpha-4 (Homo sapiens) (UniProt O75676)
[24] = molecular target: Proto-oncogene tyrosine-protein kinase Src (Homo sapiens) (UniProt P12931)
[25] = molecular target: SRSF protein kinase 1 (Homo sapiens) (UniProt Q96SB4)
[26] = molecular target: Serine/threonine-protein kinase VRK2 (Homo sapiens) (UniProt Q86Y07)
[27] = molecular target: 5-hydroxytryptamine receptor 1D (Homo sapiens) (UniProt P28221); conditions: Compound concentration 10.0 uM
[28] = molecular target: 5-hydroxytryptamine receptor 2B (Homo sapiens, UniProt P41595); conditions: Compound concentration 10.0 uM
[29] = molecular target: Histamine H1 receptor (Homo sapiens) (UniProt P35367); conditions: Compound concentration 10.0 uM
[30] = molecular target: T2, Alpha-2B adrenergic receptor (Homo sapiens) (UniProt P18089); conditions: Compound concentration 10.0 uM
T2 sequence (whole entry): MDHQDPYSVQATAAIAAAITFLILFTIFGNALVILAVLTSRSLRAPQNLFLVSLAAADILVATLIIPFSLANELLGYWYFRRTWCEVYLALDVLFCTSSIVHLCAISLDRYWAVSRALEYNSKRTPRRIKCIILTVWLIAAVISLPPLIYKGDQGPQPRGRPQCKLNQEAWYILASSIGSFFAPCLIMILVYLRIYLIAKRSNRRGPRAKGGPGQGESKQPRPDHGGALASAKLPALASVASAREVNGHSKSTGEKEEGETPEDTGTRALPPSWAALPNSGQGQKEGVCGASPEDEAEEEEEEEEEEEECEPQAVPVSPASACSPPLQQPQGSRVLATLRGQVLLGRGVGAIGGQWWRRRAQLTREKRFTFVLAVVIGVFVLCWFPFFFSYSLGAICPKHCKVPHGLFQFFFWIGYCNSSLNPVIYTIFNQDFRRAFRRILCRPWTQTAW

[31] = Compound concentration 1000.0 nM
[32] = Compound concentration 100.0 nM

Chain of Serine/threonine-protein kinase ICK (Homo sapiens) (Q9UPZ9 whole entry): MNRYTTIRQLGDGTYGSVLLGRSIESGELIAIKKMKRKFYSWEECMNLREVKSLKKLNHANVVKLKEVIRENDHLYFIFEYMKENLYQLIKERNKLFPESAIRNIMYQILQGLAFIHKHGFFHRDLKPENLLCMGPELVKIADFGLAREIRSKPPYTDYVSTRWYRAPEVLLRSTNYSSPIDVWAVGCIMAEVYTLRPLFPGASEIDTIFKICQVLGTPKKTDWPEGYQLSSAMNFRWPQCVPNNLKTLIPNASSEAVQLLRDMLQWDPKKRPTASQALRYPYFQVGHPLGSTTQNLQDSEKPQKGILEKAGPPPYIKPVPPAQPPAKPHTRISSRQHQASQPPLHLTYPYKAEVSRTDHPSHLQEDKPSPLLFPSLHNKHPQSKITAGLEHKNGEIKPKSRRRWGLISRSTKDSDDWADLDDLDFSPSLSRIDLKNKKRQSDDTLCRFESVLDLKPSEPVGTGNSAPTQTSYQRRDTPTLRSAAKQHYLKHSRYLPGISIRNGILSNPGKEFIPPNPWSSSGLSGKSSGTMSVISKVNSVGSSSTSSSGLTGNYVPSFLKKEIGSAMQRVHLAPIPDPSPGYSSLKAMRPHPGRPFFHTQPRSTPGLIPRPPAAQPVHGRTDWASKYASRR
Chain of Serine/threonine-protein kinase PAK 1 (Homo sapiens) (Q13153 whole entry, canonical isoform): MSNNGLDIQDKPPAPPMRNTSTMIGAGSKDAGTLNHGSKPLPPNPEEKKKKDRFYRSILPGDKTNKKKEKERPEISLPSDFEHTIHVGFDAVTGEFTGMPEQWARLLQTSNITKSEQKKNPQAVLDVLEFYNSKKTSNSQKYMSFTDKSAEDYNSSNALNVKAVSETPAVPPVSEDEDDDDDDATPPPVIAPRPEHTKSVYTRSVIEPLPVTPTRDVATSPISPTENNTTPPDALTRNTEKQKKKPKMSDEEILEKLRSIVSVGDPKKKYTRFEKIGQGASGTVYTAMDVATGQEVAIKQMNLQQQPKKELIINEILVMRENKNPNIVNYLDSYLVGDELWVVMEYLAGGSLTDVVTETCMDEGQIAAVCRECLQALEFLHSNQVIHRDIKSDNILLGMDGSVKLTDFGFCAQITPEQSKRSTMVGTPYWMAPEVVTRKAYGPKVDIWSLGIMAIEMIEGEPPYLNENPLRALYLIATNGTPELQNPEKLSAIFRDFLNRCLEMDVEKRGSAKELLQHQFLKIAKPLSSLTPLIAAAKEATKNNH
Chain of Serine/threonine-protein kinase pim-1 (Homo sapiens) (P11309 whole entry, looked up): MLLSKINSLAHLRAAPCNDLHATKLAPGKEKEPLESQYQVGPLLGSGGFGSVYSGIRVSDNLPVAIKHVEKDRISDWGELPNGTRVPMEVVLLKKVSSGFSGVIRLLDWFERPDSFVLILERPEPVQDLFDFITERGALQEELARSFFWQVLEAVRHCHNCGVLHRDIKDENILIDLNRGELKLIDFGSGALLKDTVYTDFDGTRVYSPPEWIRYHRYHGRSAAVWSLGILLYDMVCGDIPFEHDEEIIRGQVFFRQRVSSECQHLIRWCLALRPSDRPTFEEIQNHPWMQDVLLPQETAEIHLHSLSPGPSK
Chain of Calcium/calmodulin-dependent protein kinase type II subunit alpha (Homo sapiens) (Q9UQM7 whole entry): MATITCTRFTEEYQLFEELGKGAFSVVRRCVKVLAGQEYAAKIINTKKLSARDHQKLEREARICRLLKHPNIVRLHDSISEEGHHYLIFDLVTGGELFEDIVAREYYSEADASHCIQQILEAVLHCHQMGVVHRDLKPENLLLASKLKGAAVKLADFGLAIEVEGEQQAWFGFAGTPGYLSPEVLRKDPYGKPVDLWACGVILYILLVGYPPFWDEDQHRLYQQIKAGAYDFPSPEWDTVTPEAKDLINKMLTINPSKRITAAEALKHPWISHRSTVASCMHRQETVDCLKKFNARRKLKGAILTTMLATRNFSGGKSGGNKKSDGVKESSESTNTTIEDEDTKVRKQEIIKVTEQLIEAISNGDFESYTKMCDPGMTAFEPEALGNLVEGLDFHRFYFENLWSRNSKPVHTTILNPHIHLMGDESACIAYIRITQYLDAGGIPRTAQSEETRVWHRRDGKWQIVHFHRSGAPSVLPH
Chain of Cyclin-dependent kinase-like 1 (Homo sapiens) (Q00532 whole entry): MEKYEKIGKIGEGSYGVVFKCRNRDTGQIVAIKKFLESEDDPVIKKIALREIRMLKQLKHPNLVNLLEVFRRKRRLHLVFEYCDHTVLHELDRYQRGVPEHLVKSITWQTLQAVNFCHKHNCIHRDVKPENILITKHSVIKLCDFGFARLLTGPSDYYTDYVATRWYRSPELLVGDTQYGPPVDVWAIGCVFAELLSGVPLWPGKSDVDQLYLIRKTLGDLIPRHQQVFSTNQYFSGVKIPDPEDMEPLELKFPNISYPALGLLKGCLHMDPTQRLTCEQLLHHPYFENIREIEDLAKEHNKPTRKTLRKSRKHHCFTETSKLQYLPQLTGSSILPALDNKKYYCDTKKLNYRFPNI
Chain of Serine/threonine-protein kinase VRK2 (Homo sapiens) (Q86Y07 whole entry): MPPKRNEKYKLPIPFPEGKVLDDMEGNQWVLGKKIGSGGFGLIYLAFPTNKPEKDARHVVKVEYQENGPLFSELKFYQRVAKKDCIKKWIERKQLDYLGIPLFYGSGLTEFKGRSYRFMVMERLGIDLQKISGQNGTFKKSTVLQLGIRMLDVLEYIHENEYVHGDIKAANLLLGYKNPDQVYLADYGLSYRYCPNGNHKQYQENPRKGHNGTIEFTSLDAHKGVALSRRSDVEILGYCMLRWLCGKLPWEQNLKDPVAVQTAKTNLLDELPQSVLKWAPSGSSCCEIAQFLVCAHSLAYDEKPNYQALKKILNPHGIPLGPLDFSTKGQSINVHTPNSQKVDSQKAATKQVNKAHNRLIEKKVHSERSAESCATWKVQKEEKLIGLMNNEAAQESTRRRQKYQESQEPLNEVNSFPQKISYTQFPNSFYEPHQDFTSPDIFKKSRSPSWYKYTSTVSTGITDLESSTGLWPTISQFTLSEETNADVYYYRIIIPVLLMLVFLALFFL
Chain of 5-hydroxytryptamine receptor 2B (P41595 whole entry): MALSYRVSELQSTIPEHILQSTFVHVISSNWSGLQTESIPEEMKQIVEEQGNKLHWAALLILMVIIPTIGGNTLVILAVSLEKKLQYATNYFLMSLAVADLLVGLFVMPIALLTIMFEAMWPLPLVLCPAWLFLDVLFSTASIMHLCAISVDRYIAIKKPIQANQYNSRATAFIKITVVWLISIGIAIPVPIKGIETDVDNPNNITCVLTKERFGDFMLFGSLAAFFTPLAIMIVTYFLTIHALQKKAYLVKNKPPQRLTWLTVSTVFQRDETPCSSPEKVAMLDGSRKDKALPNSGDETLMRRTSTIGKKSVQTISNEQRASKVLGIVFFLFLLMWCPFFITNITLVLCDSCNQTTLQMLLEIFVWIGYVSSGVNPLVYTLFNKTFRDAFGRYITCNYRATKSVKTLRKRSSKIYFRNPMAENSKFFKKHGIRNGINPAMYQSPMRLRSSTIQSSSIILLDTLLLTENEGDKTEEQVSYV
Chain of SRSF protein kinase 1 (Homo sapiens) (Q96SB4 whole entry): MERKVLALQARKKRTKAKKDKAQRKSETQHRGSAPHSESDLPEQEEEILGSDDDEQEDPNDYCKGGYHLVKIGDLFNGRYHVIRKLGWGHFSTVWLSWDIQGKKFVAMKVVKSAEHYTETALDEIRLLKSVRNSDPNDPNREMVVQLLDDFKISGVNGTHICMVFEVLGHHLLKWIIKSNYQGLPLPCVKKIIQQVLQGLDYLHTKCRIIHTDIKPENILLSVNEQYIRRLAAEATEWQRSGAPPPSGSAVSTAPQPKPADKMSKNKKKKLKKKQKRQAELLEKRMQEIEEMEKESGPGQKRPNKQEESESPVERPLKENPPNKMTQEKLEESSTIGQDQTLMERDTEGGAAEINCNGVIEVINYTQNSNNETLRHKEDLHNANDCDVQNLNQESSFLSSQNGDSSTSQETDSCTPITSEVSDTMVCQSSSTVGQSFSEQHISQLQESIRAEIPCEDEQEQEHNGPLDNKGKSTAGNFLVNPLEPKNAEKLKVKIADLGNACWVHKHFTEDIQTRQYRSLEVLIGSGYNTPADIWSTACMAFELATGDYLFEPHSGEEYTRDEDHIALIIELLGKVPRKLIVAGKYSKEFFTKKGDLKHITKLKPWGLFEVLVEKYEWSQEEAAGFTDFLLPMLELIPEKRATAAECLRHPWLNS
Chain of Histamine H1 receptor (Homo sapiens) (P35367 whole entry): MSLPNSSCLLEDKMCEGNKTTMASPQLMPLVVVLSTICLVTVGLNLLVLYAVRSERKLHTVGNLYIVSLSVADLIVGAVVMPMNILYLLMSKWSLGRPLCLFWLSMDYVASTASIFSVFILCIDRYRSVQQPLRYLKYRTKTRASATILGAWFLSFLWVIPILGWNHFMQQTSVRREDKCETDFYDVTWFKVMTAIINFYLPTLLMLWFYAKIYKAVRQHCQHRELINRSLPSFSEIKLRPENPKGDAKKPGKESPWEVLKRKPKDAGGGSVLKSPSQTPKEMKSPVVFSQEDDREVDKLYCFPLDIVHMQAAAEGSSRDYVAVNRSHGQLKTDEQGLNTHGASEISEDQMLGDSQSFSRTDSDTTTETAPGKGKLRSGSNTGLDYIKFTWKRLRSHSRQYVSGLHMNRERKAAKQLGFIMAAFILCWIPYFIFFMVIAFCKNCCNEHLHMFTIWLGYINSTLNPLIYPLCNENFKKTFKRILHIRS
Chain of Proto-oncogene tyrosine-protein kinase Src (Homo sapiens) (P12931 2-536 limits assumed): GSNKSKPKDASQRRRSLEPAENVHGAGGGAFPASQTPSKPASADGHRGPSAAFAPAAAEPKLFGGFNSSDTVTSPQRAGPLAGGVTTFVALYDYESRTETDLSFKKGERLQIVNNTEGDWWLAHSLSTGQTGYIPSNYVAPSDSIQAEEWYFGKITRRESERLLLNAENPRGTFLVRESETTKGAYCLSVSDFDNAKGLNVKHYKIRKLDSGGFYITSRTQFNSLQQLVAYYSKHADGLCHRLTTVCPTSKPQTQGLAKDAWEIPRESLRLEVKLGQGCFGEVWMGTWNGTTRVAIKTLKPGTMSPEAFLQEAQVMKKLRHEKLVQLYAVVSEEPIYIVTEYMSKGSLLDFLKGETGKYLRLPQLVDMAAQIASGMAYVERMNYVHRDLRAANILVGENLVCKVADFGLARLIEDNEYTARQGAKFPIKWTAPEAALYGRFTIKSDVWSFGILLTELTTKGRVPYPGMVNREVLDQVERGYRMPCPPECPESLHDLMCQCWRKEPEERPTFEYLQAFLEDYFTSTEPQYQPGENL

C[C@@H]1CN(c2cc(-c3nn(C)c4ccc(OC5(C)CC5)cc34)ncn2)C[C@H](C)O1 [MLi-2-NC]
inactive: residual activity [1, 31] 91% | residual activity [2, 31] 80% | residual activity [3, 31] 79% | residual activity [4, 31] 100% | residual activity [5, 31] 98% | residual activity [6, 31] 93% | residual activity [7, 31] 89% | residual activity [8, 31] 64% | residual activity [9, 31] 81% | residual activity [10, 31] 100% | residual activity [11, 31] 96% | residual activity [12, 31] 79% | residual activity [13, 31] 78% | residual activity [14, 31] 93% | residual activity [15, 31] 74% | residual activity [16, 31] 89% | residual activity [17, 31] 64% | residual activity [18, 31] 76% | residual activity [19, 31] 100% | residual activity [20, 31] 77% | residual activity [21, 31] 100% | residual activity [22, 31] 97% | residual activity [23, 31] 100% | residual activity [24, 31] 100% | residual activity [25, 31] 88% | residual activity [26, 31] 73% | inhibition [27] 4.11% | inhibition [28] 26.7% | inhibition [29] 11.9% | inhibition [30] 27.2%

C[C@@H]1CN(c2cc(-c3n[nH]c4ccc(OC5(C)CC5)cc34)ncn2)C[C@H](C)O1 [MLi-2]
inactive: residual activity [1, 32] 95% | residual activity [2, 32] 66% | residual activity [3, 32] 67% | residual activity [4, 32] 100% | residual activity [5, 32] 100% | residual activity [6, 32] 59% | residual activity [7, 32] 89% | residual activity [8, 32] 81% | residual activity [9, 32] 95% | residual activity [10, 32] 89% | residual activity [11, 32] 84% | residual activity [12, 32] 97% | residual activity [13, 32] 62% | residual activity [14, 32] 79% | residual activity [15, 32] 77% | residual activity [16, 32] 90% | residual activity [17, 32] 56% | residual activity [18, 32] 97% | residual activity [19, 32] 100% | residual activity [20, 32] 100% | residual activity [21, 32] 91% | residual activity [22, 32] 89% | residual activity [23, 32] 100% | residual activity [24, 32] 81% | residual activity [25, 32] 100% | residual activity [26, 32] 65% | inhibition [27] -7.94% | inhibition [28] 41.4% | inhibition [29] -6.46% | inhibition [30] 6.1%
